Assay results reported in EPA's ToxRefDB 2.

Tests used:
rat [1] = conditions: Subchronic oral toxicity in rodents, wistar, Feed, dose end: 90 day, group: systemic, systemic / clinical chemistry / urea nitrogen / urea + systemic / hematology / blood clotting / blood clotting - clotting time + systemic / …
rabbit = conditions: Prenatal developmental toxicity study, new zealand white, Oral, Gavage/Intubation, dose end: 19 GD
rat [2] = conditions: Developmental neurotoxicity study; sprague dawley; Oral; [Not Specified]; dose end: 87 PND; group: cannot be grouped; systemic / in life observation / clinical signs / abnormal posture
rat [3] = conditions: Multigenerational reproductive toxicity study, sprague dawley, Oral, Feed, dose end: 3 generation
rat [4] = conditions: Subchronic oral toxicity in rodents, other, Feed, dose end: 90 day, group: systemic
mouse [5] = conditions: Combined chronic toxicity/carcinogenicity; b6c3f1; Oral; Feed; dose end: 107 week; group: systemic; systemic / pathology microscopic / liver / hepatocyte, multinucleate
rat [6] = conditions: Developmental neurotoxicity study, sprague dawley, Oral, Feed, dose end: 72 PND, group: cannot be grouped
mouse [7] = conditions: Developmental neurotoxicity study; other; Oral; Feed; dose end: 77 PND; group: cannot be grouped; systemic / pathology microscopic / brain / [other] + systemic / pathology microscopic / brain / depletion
mouse [8] = conditions: Carcinogenicity; b6c3f1; Oral; Feed; dose end: 80 week; group: systemic; systemic / pathology microscopic / liver / hepatocellular carcinoma + systemic / in life observation / clinical signs / alopecia + systemic…
rat [9] = conditions: Carcinogenicity, other, Oral, Feed, dose end: 80 week, group: systemic
[10] = group: developmental, systemic / in life observation / body weight / fetal weight
[11] = group: maternal, systemic / in life observation / mortality / mortality + reproductive / reproductive performance / aborted / aborted + systemic / in life …
[12] = group: offspring, developmental / developmental landmark / vaginal opening / vaginal opening + systemic / in life observation / body weight / offspring (pup) …
[13] = group: parental, systemic / in life observation / body weight / body weight + systemic / in life observation / body weight / body weight gain + systemic / …
[14] = group: reproductive, reproductive / reproductive performance / implantations / implantations + reproductive / offspring survival early / litter size / litter …
[15] = systemic / in life observation / food consumption / food consumption
[16] = systemic / in life observation / food consumption / food consumption + systemic / in life observation / body weight / body weight
[17] = systemic / in life observation / body weight / body weight + systemic / in life observation / body weight / body weight gain + systemic / in…
[18] = systemic / in life observation / body weight / body weight + systemic / in life observation / clinical signs / fur (altered appearance) + …
[19] = systemic / in life observation / clinical signs / fur (altered appearance) + systemic / in life observation / clinical signs / palpable mass…

`NC(=O)c1c(Cl)cccc1Cl` [2,6-Dichlorobenzamide] was tested, and the LEL (rat [1]) was 49 mg/kg/day, the LOAEL (rat [1]) was 49 mg/kg/day and the NEL (rat [1]) was 14 mg/kg/day. It also gave an NOAEL (rat [1]) of 14 mg/kg/day, an LEL (rabbit; [10]) of 90 mg/kg/day and an LOAEL (rabbit; [10]) of 90 mg/kg/day. It also gave an NEL (rabbit; [10]) of 30 mg/kg/day, an NOAEL (rabbit; [10]) of 30 mg/kg/day and an LOAEL (rabbit; group: maternal, systemic / in life observation / mortality / mortality) of 30 mg/kg/day. For the same compound, the NEL (rabbit; [11]) was 10 mg/kg/day, the NOAEL (rabbit; [11]) was 10 mg/kg/day and the LEL (rabbit; group: maternal, systemic / in life observation / mortality / mortality + systemic / in life observation / clinical signs / moribundity) was 30 mg/kg/day.

`CC(C)(c1ccc(O)cc1)c1ccc(O)cc1` [Bisphenol A] showed an LEL (rat [2]) of 0.04 mg/kg/day, an LOAEL (rat [2]) greater than 0.4 mg/kg/day and an NEL (rat [2]) of less than 0.04 mg/kg/day. The NOAEL (rat [2]) was no less than 0.4 mg/kg/day, the LEL (rat [3]; [12]) was 500 mg/kg/day and the LOAEL (rat [3]; [12]) was greater than 500 mg/kg/day. It also gave an NEL (rat [3]; [12]) of 50 mg/kg/day, an NOAEL (rat [3]; [12]) of no less than 500 mg/kg/day and an LEL (rat [3]; group: parental, systemic / in life observation / body weight / body weight + systemic / in life observation / body weight / body weight gain) of 50 mg/kg/day. For the same compound, the LOAEL (rat [3]; [13]) was greater than 500 mg/kg/day, the NEL (rat [3]; [13]) was 5 mg/kg/day and the NOAEL (rat [3]; [13]) was no less than 500 mg/kg/day. The NEL (rat [3]; group: reproductive, reproductive / reproductive performance / implantations / implantations) was 50 mg/kg/day, the LEL (rat [3]; [14]) was 500 mg/kg/day and the LOAEL (rat [3]; [14]) was greater than 500 mg/kg/day. For the same compound, the NOAEL (rat [3]; [14]) was no less than 500 mg/kg/day, the LEL (rat [4]; [15]) was 5 mg/kg/day and the NEL (rat [4]; [15]) was less than 5 mg/kg/day. It also gave an LOAEL (rat [4]; [16]) greater than 25 mg/kg/day, an NOAEL (rat [4]; [16]) of no less than 25 mg/kg/day and an LEL (mouse [5]) of 150 mg/kg/day. It also gave an LOAEL (mouse [5]) greater than 750 mg/kg/day, an NEL (mouse [5]) of less than 150 mg/kg/day and an NOAEL (mouse [5]) of no less than 750 mg/kg/day. The LOAEL (rat [6]; systemic / in life observation / body weight / body weight + systemic / in life observation / body weight / body weight gain) was 56.4 mg/kg/day, the LEL (rat [6]; [17]) was 56.4 mg/kg/day and the NEL (rat [6]; [17]) was 5.85 mg/kg/day. It also gave an NOAEL (rat [6]; [17]) of 5.85 mg/kg/day, an LEL (mouse [7]) of 0.03 mg/kg/day and an LOAEL (mouse [7]) greater than 2000 mg/kg/day. For the same compound, the NEL (mouse [7]) was less than 0.03 mg/kg/day and the NOAEL (mouse [7]) was no less than 2000 mg/kg/day.

In the case of `ClC1=C(Cl)[C@]2(Cl)C3C(Cl)C(Cl)CC3[C@@]1(Cl)C2(Cl)Cl` (some centres not stated) [Chlordane], the LEL (mouse [8]) is reported as 4.49 mg/kg/day, the LOAEL (mouse [8]) is reported as greater than 8.43 mg/kg/day and the NEL (mouse [8]) is reported as less than 4.49 mg/kg/day. It also gave an NOAEL (mouse [8]) of no less than 8.43 mg/kg/day, an LOAEL (rat [9]; [18]) greater than 12.1 mg/kg/day and an NOAEL (rat [9]; [18]) of no less than 12.1 mg/kg/day. For the same compound, the LEL (rat [9]; [19]) was 6.04 mg/kg/day and the NEL (rat [9]; [19]) was less than 6.04 mg/kg/day.
